Data reported in ChEMBL document CHEMBL5230093, “The importance of indole and azaindole scaffold in the development of antitumor agents” (Eur J Med Chem, 2020).
pIC50: −log10 of the molar value. Blank lines part the entries; values can stand above or below the molecule they belong to.

Tests used:
[1] = test system: A549; test: Antitumor activity against human A549 cells xenografted in mouse model assessed as tumor growth inhibition relative to control; assay type: functional; design: scale not given: the % may be the effect or the level left
[2] = test system: HeLa; test: Antiproliferative activity against human HeLa cells measured after 48 hrs by CCK-8 method; assay type: functional, cell-based
[3] = test system: HepG2; test: Potency index, ratio of doxorubicin IC50 to compound IC50 for anticancer activity against human HepG2 cells; assay type: functional
[4] = test system: HCT-116; test: Potency index, ratio of doxorubicin IC50 to compound IC50 for anticancer activity against human HCT-116 cells; assay type: functional
[5] = test system: MCF7; test: Potency index, ratio of doxorubicin IC50 to compound IC50 for anticancer activity against human MCF7 cells; assay type: functional
[6] = test system: MCF7; test: Cytotoxicity against human MCF7 cells assessed as reduction in cell growth measured after 2 days by MTT assay; assay type: functional, cell-based; details: MCF7, 48 h
[7] = test system: MCF7; test: Antiproliferative activity against human MCF7 cells by SRB assay; assay type: functional, cell-based
[8] = test system: THP-1; test: Antiproliferative activity against human THP-1 cells incubated for 24 hrs by trypan blue reagent based analysis; assay type: functional, cell-based; details: THP-1, 24 h
[9] = molecular target: Histone deacetylase 4 (Homo sapiens, UniProt P56524); test: Inhibition of human recombinant HDAC4 using Boc-Lys(Ac)-AMC as substrate preincubated for 15 mins followed by substrate addition and measured after 60 mins by fluorescence based analysis
Chain of Histone deacetylase 4 (P56524 whole entry): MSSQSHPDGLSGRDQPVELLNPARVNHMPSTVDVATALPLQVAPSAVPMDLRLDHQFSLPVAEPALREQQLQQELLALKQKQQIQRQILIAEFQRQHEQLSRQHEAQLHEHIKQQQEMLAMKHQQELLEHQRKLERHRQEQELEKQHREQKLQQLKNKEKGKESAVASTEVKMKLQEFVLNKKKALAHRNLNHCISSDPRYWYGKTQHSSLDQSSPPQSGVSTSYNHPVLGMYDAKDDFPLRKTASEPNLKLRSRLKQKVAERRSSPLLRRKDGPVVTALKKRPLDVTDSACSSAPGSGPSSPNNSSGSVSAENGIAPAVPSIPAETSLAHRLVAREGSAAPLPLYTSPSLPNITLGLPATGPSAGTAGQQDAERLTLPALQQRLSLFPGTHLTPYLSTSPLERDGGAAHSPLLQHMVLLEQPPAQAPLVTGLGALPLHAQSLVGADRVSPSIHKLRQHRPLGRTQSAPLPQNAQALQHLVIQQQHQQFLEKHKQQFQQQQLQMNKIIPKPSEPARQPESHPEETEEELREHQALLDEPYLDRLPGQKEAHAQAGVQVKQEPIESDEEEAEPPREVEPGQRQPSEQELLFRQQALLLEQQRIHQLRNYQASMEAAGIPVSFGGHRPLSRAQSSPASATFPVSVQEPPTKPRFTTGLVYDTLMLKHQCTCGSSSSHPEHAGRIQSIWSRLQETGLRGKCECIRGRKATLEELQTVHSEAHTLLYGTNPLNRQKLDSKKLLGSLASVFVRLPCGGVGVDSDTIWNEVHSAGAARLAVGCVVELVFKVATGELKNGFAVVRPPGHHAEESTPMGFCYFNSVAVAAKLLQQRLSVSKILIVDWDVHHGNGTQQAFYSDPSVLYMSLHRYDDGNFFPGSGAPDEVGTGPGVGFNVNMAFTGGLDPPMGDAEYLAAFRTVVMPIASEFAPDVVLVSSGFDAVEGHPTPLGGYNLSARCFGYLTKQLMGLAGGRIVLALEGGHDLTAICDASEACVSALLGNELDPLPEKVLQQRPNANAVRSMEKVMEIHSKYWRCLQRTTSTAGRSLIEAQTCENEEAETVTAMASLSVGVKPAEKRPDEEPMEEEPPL

[10] = molecular target: Bromodomain-containing protein 4 (Homo sapiens) (UniProt O60885); test: Inhibition of GST tagged BRD4 (unknown origin) at 10 uM by HTRF assay relative to control
[11] = test system: BXPC-3; test: Growth inhibition of human BXPC-3 cells; assay type: functional
[12] = test system: PANC-1; test: Growth inhibition of human PANC-1 cells; assay type: functional
[13] = test system: NCI-H460; test: Growth inhibition of human NCI-H460 cells; assay type: functional
[14] = test system: DU-145; test: Antiproliferative activity against human DU-145 cells; assay type: functional, cell-based
[15] = Resistance factor, ratio of IC50 for human K562/VCR cells to IC50 for K562 cells; assay type: functional; details: time 72 hrs
[16] = test system: MCF7; test: Anticancer activity against human MCF7 cells incubated for 24 hrs by SRB method; assay type: functional, cell-based; details: MCF7, 24 h
[17] = test system: HepG2; test: Anticancer activity against human HepG2 cells incubated for 24 hrs by SRB method; assay type: functional, cell-based; details: HepG2, 24 h
[18] = test system: HCT-116; test: Anticancer activity against human HCT-116 cells incubated for 24 hrs by SRB method; assay type: functional, cell-based; details: HCT-116, 24 h
[19] = molecular target: Tubulin; test: Inhibition of tubulin polymerization (unknown origin); assay type: protein-complex assay, Homo sapiens
[20] = test system: MCF7; test: Antiproliferative activity against human MCF7 cells; assay type: functional, cell-based
[21] = test system: HepG2; test: Antiproliferative activity against human HepG2 cells measured after 48 hrs by MTT assay; assay type: functional, cell-based; details: HepG2, 48 h
[22] = test system: HeLa; test: Antiproliferative activity against human HeLa cells measured after 48 hrs by MTT assay; assay type: functional, cell-based
[23] = test system: MCF7; test: Antiproliferative activity against human MCF7 cells measured after 48 hrs by MTT assay; assay type: functional, cell-based; details: MCF7, 48 h
[24] = test system: HCT-116; test: Cytotoxicity against human HCT-116 cells; assay type: functional, cell-based
[25] = test system: MCF7; test: Cytotoxicity against human MCF7 cells; assay type: functional, cell-based
[26] = test system: MDA-MB-231; test: Cytotoxicity against human MDA-MB-231 cells measured after 72 hrs; assay type: functional, cell-based; details: MDA-MB-231, 72 h
[27] = Cytotoxicity against human Triple-negative breast cancer cells; assay type: functional, cell-based; details: Triple-negative breast cancer cell
[28] = test system: HCT-15; test: Antiproliferative activity against human HCT-15 cells; assay type: functional, cell-based
[29] = test system: A549; test: Cytotoxicity against human A549 cells; assay type: functional, cell-based
[30] = test system: HeLa; test: Anticancer activity against human HeLa cells by MTT assay; assay type: functional, cell-based; details: pooled result: one value given for 4 cell lines, strains, targets or settings
[31] = test system: A549; test: Cytotoxicity against human A549 cells assessed as reduction in cell growth; assay type: functional, cell-based
[32] = test system: HeLa; test: Cytotoxicity against human HeLa cells; assay type: functional, cell-based
[33] = Inhibition of cell migration of human SUIT-2 cells; assay type: functional, cell-based
[34] = Antiproliferative activity against human SUIT-2 cells; assay type: functional, cell-based
[35] = test system: Panel NCI-60 (60 carcinoma cell lines); test: Antiproliferative activity against human Panel NCI-60 (60 carcinoma cell lines) cells; assay type: functional
[36] = test system: UO-31; test: Antiproliferative activity against human UO-31 cells; assay type: functional
[37] = test system: HepG2; test: Cytotoxicity against human HepG2 cells; assay type: functional, cell-based

SMILES: COc1cc2cc(C(=O)N3CCC=C(Cl)C3=O)n(C)c2c(OC)c1OC
Activity [1]: 54.6%

pIC50 [2]: 7.82
SMILES: COc1cc(/C=C/c2ncc([N+](=O)[O-])n2CCOC(=O)c2c[nH]c3ccccc23)cc(OC)c1OC

SMILES: O=c1nc(-c2cn(S(=O)(=O)c3ccccc3)c3ccccc23)cc(-c2cccc(O)c2)[nH]1
Ratio IC50 [3]: >8
Ratio IC50 [4]: >8
Ratio IC50 [5]: >8

SMILES: Nc1ccccc1Oc1cccc(C(c2c[nH]c3ccccc23)c2c[nH]c3ccccc23)c1
pIC50 [6]: 4.63

pIC50 [7]: 4.65
SMILES: COc1ccc2c(c1)c(/C=N/NC(=O)Cc1c[nH]c3ncccc13)cn2Cc1ccc(F)cc1F

pIC50 [7]: 4.65
SMILES: N#Cc1ccc(Cn2cc(/C=N/NC(=O)Cc3c[nH]c4ncccc34)c3cc(Br)ccc32)cc1

SMILES: Cc1noc(C)c1-c1ccc2c(c1)c(Cc1ccc(F)cc1)cn2CCCCCCCC(=O)NO
pIC50 [8]: 4.81
pIC50 [9]: 8.30
inhibition [10]: 88%

GI50 [11]: 7.62 µM
GI50 [12]: 7.62 µM
GI50 [13]: 7.62 µM
SMILES: C[C@H]1NC(=O)[C@@H](Cc2c[nH]c3ccccc23)n2c1nc1ccccc1c2=O [FUMIQUINAZOLINE G]

pIC50 [14]: 5.01
SMILES: COc1cc([C@@H]2c3cc4c(cc3[C@@H](O[C@@H]3O[C@@H]5CO[C@@H](C)O[C@H]5[C@H](O)[C@H]3O)[C@H]3COC(=O)[C@H]23)OCO4)cc(OC)c1O [ETOPOSIDE]

SMILES: COc1cc([C@@H]2c3cc4c(cc3[C@H](OC(=O)Cc3ccc5cc[nH]c5c3)[C@H]3COC(=O)[C@H]23)OCO4)cc(OC)c1OC
Ratio IC50 [15]: 2.27

pIC50 [16]: > 5.00
pIC50 [17]: > 5.00
pIC50 [18]: > 5.00
SMILES: COC(=O)c1ccc(C(=O)/C=C2\C(=O)Nc3ccc(S(=O)(=O)N4CCOCC4)cc32)cc1

pIC50 [19]: 5.41
pIC50 [20]: 5.62
SMILES: O=C(c1nnc(Nc2ccccc2F)o1)c1c[nH]c2ccccc12

pIC50 [16]: > 5.00
pIC50 [17]: > 5.00
pIC50 [18]: > 5.00
SMILES: O=C(O)C1=C2C(=Nc3ccc(S(=O)(=O)N4CCOCC4)cc32)NC1=O

pIC50 [7]: 4.65
SMILES: O=C(Cc1c[nH]c2ncccc12)N/N=C/c1cn(Cc2ccc(Cl)cc2Cl)c2ccc(Br)cc12

SMILES: Nc1ccccc1Oc1cccc(C(c2c[nH]c3ccc(Cl)cc23)c2c[nH]c3ccc(Cl)cc23)c1
pIC50 [6]: 4.46

pIC50 [16]: > 5.00
pIC50 [17]: > 5.00
pIC50 [18]: > 5.00
SMILES: CC(=O)Nc1cccc(C(=O)/C=C2\C(=O)Nc3ccc(S(=O)(=O)N4CCOCC4)cc32)c1

SMILES: CS(=O)(=O)n1cc(-c2cc(-c3cccc(O)c3)[nH]c(=S)n2)c2ccccc21
Ratio IC50 [3]: >8
Ratio IC50 [4]: >8
Ratio IC50 [5]: >8

pIC50 [21]: 5.10
pIC50 [22]: 5.43
pIC50 [23]: 4.70
SMILES: Nc1c(C(=O)c2cccc3ccccc23)[nH]c2ncccc12

pIC50 [7]: 4.65
SMILES: O=C(Cc1c[nH]c2ncccc12)N/N=C/c1cn(Cc2ccc(Cl)cc2Cl)c2ccccc12

pIC50 [7]: 4.65
SMILES: COc1ccc2c(c1)c(/C=N/NC(=O)Cc1c[nH]c3ncccc13)cn2Cc1ccc(Br)cc1

pIC50 [16]: > 5.00
pIC50 [17]: > 5.00
pIC50 [18]: > 5.00
SMILES: N#CC(C#N)=C1C(=O)Nc2ccc(S(=O)(=O)N3CCOCC3)cc21

SMILES: Cn1cc(-c2nc(-c3cn(C)c4ncc(Cl)cc34)no2)c2cc(Br)ccc21
pIC50 [24]: 5.71

SMILES: O=C(Nc1cc([N+](=O)[O-])cc([N+](=O)[O-])c1)c1coc(-c2c[nH]c3cccnc23)n1
pIC50 [25]: 7.47

SMILES: COc1cnc2c(c1)c(-c1noc(-c3cn(C)c4ccc(Br)cc34)n1)cn2C
pIC50 [24]: 5.45

SMILES: O=C(Nc1ccc(Br)cc1)c1coc(-c2c[nH]c3cccnc23)n1
pIC50 [25]: 6.44

SMILES: N=c1nc(-c2cn(S(=O)(=O)c3ccccc3)c3ccccc23)cc(-c2cccc(O)c2)[nH]1
Ratio IC50 [3]: >8
Ratio IC50 [4]: >8
Ratio IC50 [5]: >8

SMILES: CCCCCc1cc2cc(C)cc(/N=C/c3[nH]c(C)c(CCCCC)c3C)c2[nH]1
pIC50 [26]: 5.38

SMILES: COc1cccc2c1C(=O)c1c(O)c3c(c(O)c1C2=O)C[C@@](O)(C(=O)CO)C[C@@H]3O[C@H]1C[C@H](N)[C@H](O)[C@H](C)O1 [DOXORUBICIN]
Activity [1]: 53.3%

SMILES: Cc1cccc2c(C(c3ccc(O)cc3)c3c[nH]c4c(C)cccc34)c[nH]c12
pIC50 [27]: 5.00

pIC50 [28]: 6.04
SMILES: COc1ccc(CC/N=C2\NC(=O)/C(=C/c3c[nH]c4ccc(Br)cc34)S2)cc1

SMILES: CNC(=S)N/N=C/c1c(-c2ccc(OC)cc2)[nH]c2ccccc12
Ratio IC50 [15]: 2.27
pIC50 [29]: 4.90

pIC50 [30]: 5.03
SMILES: CC(C)(C)OC(=O)N1CCC2C(C1)c1cc(Br)ccc1N2S(=O)(=O)c1ccc(Cl)cc1 (configuration not stated)

SMILES: COc1cc(C(c2c[nH]c3ccccc23)c2c[nH]c3ccccc23)cc(Cl)c1O
pIC50 [31]: 6.47
pIC50 [32]: 6.43

SMILES: CS(=O)(=O)n1cc(-c2cc(-c3cccc(O)c3)[nH]c(=N)n2)c2ccccc21
Ratio IC50 [3]: >8
Ratio IC50 [4]: >8
Ratio IC50 [5]: >8

pIC50 [16]: > 5.00
pIC50 [17]: > 5.00
pIC50 [18]: > 5.00
SMILES: CCOC(=O)/C(C#N)=C1/C(=O)Nc2ccc(S(=O)(=O)N3CCOCC3)cc21

pIC50 [33]: > 5.00
SMILES: COc1ccc(OC)c(-c2cn3nc(-c4cn(C)c5ccc(Br)cc45)sc3n2)c1
pIC50 [34]: > 5.00

pIC50 [33]: > 5.00
SMILES: COc1ccc(OC)c(-c2cn3nc(-c4c[nH]c5ccc(Br)cc45)sc3n2)c1
GI50 [35]: 10.3 µM
pIC50 [34]: > 5.00
GI50 [36]: 1.67 µM

SMILES: CS(=O)(=O)n1cc(-c2cc(-c3cccc(O)c3)[nH]c(=O)n2)c2ccccc21
Ratio IC50 [3]: >8
Ratio IC50 [4]: >8
Ratio IC50 [5]: >8

SMILES: Cn1cc(C2=C(C#N)C(c3ccc(Cl)cc3)c3c(nc(N)[nH]c3=O)N2)c2ccccc21 (configuration not stated)
pIC50 [37]: 5.45
